Patent US20080139794A1, “Accelerants for the modification of non-natural amino acids and non-natural amino acid polypeptides” (Ambrx, Inc., priority 2005, published 2008)

Columns and labels:
wild type hGH = wild type hGH (Homo sapiens, UniProt P01241); experiment: LCMS analysis of hGH after incubation with accelerant; settings: wild type hGH 5.8 mg/ml; up to 200 mM accelerant; 28° C.; 48 hour
Description: In hGH reaction buffer, wild type hGH (5.8 mg/ml) was incubated with various concentrations of the accelerant acetic hydrazide (200 mM, 100 mM, 50 mM, 25 mM, 12.5 mM, 6.25 mM and 0 mM) at 28° C. for 48 hours. The accelerant was removed through dialysis (10 k MWCO). The resulting protein solutions were analyzed by LCMS (FIG. 8).]
The measured molecular weights of hGH in all the conditions are same and match theoretical value 22256.

scFv 108 259-pAcF [1] = experiment: One step dimerization of scFv-pAcF with homobifunctional 2 K hydroxylamine PEG linker (SDS-PAGE); settings: 47 mM acetic hydrazide; 147 μM homobifunctional 2 K PEG linker; pH 4.0; 28° C.; without accelerant very little dimer after 20 hours
Description: Single chain Fv (scFv) 108 protein with para-acetylphenylalanine substituted at position 259 (scFv 108 259-pAcF) was used the following conjugation experiment. scFv 108 259-pAcF in storage buffer was buffer exchanged into reaction buffer (150 mM NaCl, 20 mM NaOAc, 5 mM EDTA, pH 4.0) using a PD 10 column. The protein solution was concentrated to 0.5 mM, mixed with hydroxylamine homobifunctional 2 K PEG linker 2.5 mM stock solution and supplemented with acetic hydrazide as accelerant. The final reaction mixture consisted of 147 μM homobifunctional 2 K PEG linker, the corresponding concentration of pAcF-substituted scFv and 47 mM acetic hydrazide. The reaction mixtures were incubated at 28° C. and analyzed at different time points (6 hours, 20 hours, 44 hours) by SDS-PAGE (FIG. 2).
To make the one-step reaction more efficient and more practical with the homobifunctional 2 K PEG linker, accelerants were used to facilitate the dimerization process. Without accelerant, very little dimer product could be detected after 20 hours by SDS-PAGE. Lane 4 of the 6 hour, 20 hour, and 44 hour gels show reaction mixtures with a scFv:PEG linker molar ratio of 2.0:1 without the accelerant acetic hydrazide. […] Lane 1 of the 6 hour, 20 hour, and 44 hour gels show reaction mixtures with a scFv:PEG linker molar ratio of 1.6:1 with acetic hydrazide. […]

[2] = test system: hGH with para-acetylphenylalanine substituted for tyrosine at position 35 (hGH-pAcF), oxime formation with mono hydroxylamine 30 K PEG; experiment: Screening of potential accelerants using 30 K PEG hGH-pAcF conjugation (SDS-PAGE); parameters: species or system human; settings: 50 mM accelerant; hGH 8 mg/ml; hGH:PEG 1:2; 28° C.; 16 hours
Description: Human growth hormone (hGH) with para-acetylphenylalanine substituted for tyrosine at position 35 was used to screen a panel of 20 compounds (FIG. 5). hGH was buffer exchanged into hGH reaction buffer (20 mM NaOAc, 20 mg/ml glycine, 5 mg/ml Mannitol, 1 mM EDTA, pH 4.0) using a PD 10 column, and concentrated to 10 mg/ml using a Centrocon (10 K MWCO) concentrator. hGH (10 μl) was mixed with 3.6 μl mono hydroxylamine 30 K PEG (2.5 mM), 3 μl of potential accelerant solution (200 mM in hGH reaction buffer) and buffer to give a final volume of 30 μl. The molar ratio of hGH:PEG was 1:2. The reaction mixtures were incubated at 28° C. for 16 hours and 36 hours and analyzed by SDS-PAGE (FIG. 6). The last lane in each gel was a control reaction (no accelerant). Compounds 6, 7, 8, 10, and 20 were accelerants. Two compounds from the panel, compounds 7 and 20 (acetic hydrazide) (pictured in FIG. 5), were accelerants and were further evaluated under similar reaction conditions with a higher hGH protein concentration (8 mg/ml). Lane 1 was a reaction mixture with a hGH:PEG molar ratio of 1:2 and 50 mM of accelerant compound 7. Lane 2 was a reaction mixture with a hGH:PEG molar ratio of 1:2 and 50 mM of accelerant compound 20. Lane 3 was a reaction mixture with a hGH:PEG molar ratio of 1:2 with no accelerant. Lane 4 was a reaction mixture with a hGH:PEG molar ratio of 1:5 with no accelerant.

scFv 108 259-pAcF [3] = experiment: Mono hydroxylamine 30 K PEG and scFv-pAcF conjugation (SDS-PAGE); settings: 28° C.
Description: scFv 108 259-pAcF 0.5 mM stock solution in reaction buffer mentioned above (10 μl) is mixed with various amounts of mono hydroxylamine 30 K PEG 2.5 mM stock solution, 2.2 μl of 200 mM acetic hydrazide stock solution and reaction buffer. The reaction mixtures with a final reaction volume of 22 μl have different molar ratios of scFv:PEG (1:3 or 1:5). The accelerating effect of acetic hydrazide on conjugation of mono hydroxylamine 30 K PEG and scFv was evaluated at protein and PEG molar ratio of 1:3 and 1:5 with and without accelerant. The reaction mixtures were incubated at 28° C. and were analyzed at different time points (20 hours, 44 hours) by SDS-PAGE (FIG. 3). Lanes 1, 2, and 3 show 100%, 20%, and 10% of the starting scFv-pAcF, respectively. Lane 4 of the 20 hour and 44 hour gels show reaction mixtures with a scFv:PEG molar ratio of 1:3 with 20 mM acetic hydrazide. Lane 5 of the 20 hour and 44 hour gels show reaction mixtures with a scFv:PEG molar ratio of 1:3 without accelerant. Lane 6 of the 20 hour and 44 hour gels show reaction mixtures with a scFv:PEG molar ratio of 1:5 with 20 mM acetic hydrazide. […]
Similarly, the relative conjugation efficiency of different concentrations of the accelerant acetic hydrazide (5 mM, 20 mM, 80 mM) with a scFv:30 K PEG mono hydroxylamine molar ratio of 1:2 were evaluated (FIG. 4). […]

wild type hGH, sequence (P01241 with tags, fused parts or gaps): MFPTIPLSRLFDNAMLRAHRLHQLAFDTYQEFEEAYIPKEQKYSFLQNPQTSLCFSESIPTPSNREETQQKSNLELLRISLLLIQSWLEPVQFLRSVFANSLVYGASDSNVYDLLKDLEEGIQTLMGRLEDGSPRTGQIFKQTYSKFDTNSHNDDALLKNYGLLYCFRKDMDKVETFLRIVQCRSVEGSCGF

CC(=O)NN [Compound 20, acetic hydrazide]
covalent modification of protein by accelerant (LCMS) (wild type hGH): no covalent modification could be detected
dimer product formation (scFv 108 259-pAcF [1]): the dimer product appeared after 6 hours
acceleration of hGH-pAcF / 30 K PEG conjugation at higher protein concentration [2]: shown to catalyze the reaction
relative conjugation efficiency at different accelerant concentrations (scFv 108 259-pAcF [3]; 5 mM, 20 mM, 80 mM acetic hydrazide, scFv:PEG 1:2): the higher concentration of accelerant, the faster the conjugation
accelerating effect on conjugation of mono hydroxylamine 30 K PEG and scFv (scFv 108 259-pAcF [3]; 20 mM acetic hydrazide, scFv:PEG 1:3 and 1:5, with and without accelerant, 20 hours, 44 hours): accelerates the conjugation reaction
